Bridge positions count the residues as written; N and C are the ends. Peptide text beside a SMILES is read from it.
Tests used:
Assay in all cases: cell-based
human Kv1.3 (CHO) = biological target: T1, human Kv1.3 (CHO) (Homo sapiens, UniProt P22001)
T1 construct: expressed in transfected cells; host or cells: CHO

human Kv1.1 = human Kv1.1 (Homo sapiens, UniProt Q09470); parameters: expressed in transfected cells; host or cells: HEK293; conditions: Kv1.1 (IC50, pM)
human Kv1.1 (HEK293) = biological target: T2, human Kv1.1 (HEK293) (Homo sapiens, UniProt Q09470)
T2 construct: expressed in transfected cells; host or cells: HEK293

human Kv1.3 channel = human Kv1.3 channel (Homo sapiens, UniProt P22001); type: cell-based
Sequence of human Kv1.3 channel (P22001 whole entry): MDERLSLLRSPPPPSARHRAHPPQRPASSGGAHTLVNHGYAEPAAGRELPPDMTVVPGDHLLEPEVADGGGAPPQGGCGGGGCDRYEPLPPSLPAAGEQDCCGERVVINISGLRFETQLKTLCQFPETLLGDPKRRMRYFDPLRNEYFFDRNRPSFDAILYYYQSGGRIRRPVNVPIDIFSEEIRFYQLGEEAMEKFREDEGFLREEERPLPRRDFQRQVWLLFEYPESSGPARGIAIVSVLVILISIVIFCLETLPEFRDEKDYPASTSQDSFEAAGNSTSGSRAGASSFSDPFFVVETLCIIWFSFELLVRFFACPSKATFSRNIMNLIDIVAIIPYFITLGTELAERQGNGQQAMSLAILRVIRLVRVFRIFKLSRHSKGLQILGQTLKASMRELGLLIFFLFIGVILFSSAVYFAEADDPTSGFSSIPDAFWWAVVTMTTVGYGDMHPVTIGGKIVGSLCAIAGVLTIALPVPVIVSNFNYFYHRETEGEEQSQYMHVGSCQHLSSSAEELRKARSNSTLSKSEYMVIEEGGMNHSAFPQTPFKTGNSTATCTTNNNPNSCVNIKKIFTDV

T2 sequence (Q09470 whole entry): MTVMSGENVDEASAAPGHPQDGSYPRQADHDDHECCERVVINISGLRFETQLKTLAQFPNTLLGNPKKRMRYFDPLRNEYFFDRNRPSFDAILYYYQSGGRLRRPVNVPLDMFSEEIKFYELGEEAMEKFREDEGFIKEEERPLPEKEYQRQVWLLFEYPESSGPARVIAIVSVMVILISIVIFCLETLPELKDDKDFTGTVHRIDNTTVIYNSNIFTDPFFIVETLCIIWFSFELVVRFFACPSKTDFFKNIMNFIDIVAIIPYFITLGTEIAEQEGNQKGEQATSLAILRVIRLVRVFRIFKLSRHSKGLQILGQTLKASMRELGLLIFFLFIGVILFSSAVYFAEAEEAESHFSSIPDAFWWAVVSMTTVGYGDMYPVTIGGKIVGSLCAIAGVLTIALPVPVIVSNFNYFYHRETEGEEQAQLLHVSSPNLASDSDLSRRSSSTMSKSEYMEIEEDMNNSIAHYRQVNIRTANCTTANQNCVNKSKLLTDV
Sequence of human Kv1.1 (Q09470 whole entry): as above
T1 sequence (P22001 whole entry): as the sequence (P22001 whole entry) above

SMILES | IC50 (human Kv1.3 (CHO)) [nM] | IC50 (human Kv1.1) [pM] | IC50 (human Kv1.1 (HEK293)) [nM] | IC50 (human Kv1.3 channel) [nM]
CC[C@H](C)[C@@H]1NC(=O)[C@H](CCCCN)NC(=O)[C@@H](NC(=O)[C@H](CCCCN)NC(=O)[C@@H](NC(=O)[C@H](CC(N)=O)NC(=O)[C@@H](NC(=O)[C@@H](NC(=O)[C@@H](NC(=O)CN)C(C)C)[C@@H](C)CC)[C@@H](C)CC)C(C)C)CSSC[C@@H]2NC(=O)[C@H](CCCCN)NC(=O)CNC(=O)[C@H](Cc3ccccc3)NC(=O)[C@H](CCCNC(=N)N)NC(=O)[C@H](CCSC)NC(=O)CNC(=O)[C@H](C)NC(=O)[C@H](CCCCN)NC(=O)[C@H](CCCCN)NC(=O)[C@@H]3CSSC[C@@H](C(=O)N[C@H](C(=O)N4CCC[C@H]4C(=O)N[C@@H](CCCCN)C(=O)O)[C@@H](C)O)NC(=O)[C@H](Cc4c[nH]cn4)NC(=O)[C@H](CSSC[C@H](NC(=O)[C@H](CCC(N)=O)NC(=O)[C@H](CCCNC(=N)N)NC(=O)[C@H](CO)NC1=O)C(=O)N[C@@H](CCC(=O)O)C(=O)N[C@@H](CCC(=O)O)C(=O)N1CCC[C@H]1C(=O)N3)NC(=O)[C@H](CCCCN)NC(=O)CNC(=O)[C@H](CC(N)=O)NC(=O)[C@H](CCSC)NC2=O [L15E] (H-GVIINVKCKISRQCEEPCKKAGMRFGKCMNGKCHCTPK-OH; disulfide 8-28, 14-33, 18-35) | 0.0475 | 65000 | 0.436 | 0.19
CC[C@H](C)[C@@H]1NC(=O)[C@H](CCCCN)NC(=O)[C@@H](NC(=O)[C@H](CCCCN)NC(=O)[C@@H](NC(=O)[C@H](CC(N)=O)NC(=O)[C@@H](NC(=O)[C@@H](NC(=O)[C@@H](NC(=O)CN)C(C)C)[C@@H](C)CC)[C@@H](C)CC)C(C)C)CSSC[C@@H]2NC(=O)[C@H](CCCCN)NC(=O)CNC(=O)[C@H](Cc3ccccc3)NC(=O)[C@H](CCCNC(=N)N)NC(=O)[C@H](CCSC)NC(=O)CNC(=O)[C@H](C)NC(=O)[C@H](CCCCN)NC(=O)[C@H](CCCCN)NC(=O)[C@@H]3CSSC[C@@H](C(=O)N[C@H](C(=O)N4CCC[C@H]4C(=O)N[C@@H](CCCCN)C(=O)O)[C@@H](C)O)NC(=O)[C@H](Cc4c[nH]cn4)NC(=O)[C@H](CSSC[C@H](NC(=O)[C@H](CCC(N)=O)NC(=O)[C@H](CCCNC(=N)N)NC(=O)[C@H](CO)NC1=O)C(=O)N[C@@H](CC(C)C)C(=O)N[C@@H](CCC(=O)O)C(=O)N1CCC[C@H]1C(=O)N3)NC(=O)[C@H](CCCCN)NC(=O)CNC(=O)[C@H](CC(N)=O)NC(=O)[C@H](CCCNC(=N)N)NC2=O [M29R] (H-GVIINVKCKISRQCLEPCKKAGMRFGKCRNGKCHCTPK-OH; disulfide 8-28, 14-33, 18-35) | 0.2 | 23000 | 1.87 | 0.76
CC[C@H](C)[C@@H]1NC(=O)[C@H](CCCCN)NC(=O)[C@@H](NC(=O)[C@H](CCCCN)NC(=O)[C@@H](NC(=O)[C@H](CC(N)=O)NC(=O)[C@@H](NC(=O)[C@@H](NC(=O)[C@@H](NC(=O)CN)C(C)C)[C@@H](C)CC)[C@@H](C)CC)C(C)C)CSSC[C@@H]2NC(=O)[C@H](CCCCN)NC(=O)CNC(=O)[C@H](Cc3ccccc3)NC(=O)[C@H](CCCNC(=N)N)NC(=O)[C@H](CCSC)NC(=O)CNC(=O)[C@H](C)NC(=O)[C@H](CCCCN)NC(=O)[C@H](CCCCN)NC(=O)[C@@H]3CSSC[C@@H](C(=O)N[C@H](C(=O)N4CCC[C@H]4C(=O)N[C@@H](CCCCN)C(=O)O)[C@@H](C)O)NC(=O)[C@H](Cc4c[nH]cn4)NC(=O)[C@H](CSSC[C@H](NC(=O)[C@H](CCC(N)=O)NC(=O)[C@H](CCCNC(=N)N)NC(=O)[C@H](CO)NC1=O)C(=O)N[C@@H](CC(C)C)C(=O)N[C@@H](CCC(=O)O)C(=O)N1CCC[C@H]1C(=O)N3)NC(=O)[C@H](CCCCN)NC(=O)CNC(=O)[C@H](C)NC(=O)[C@H](CCSC)NC2=O [N30A] (H-GVIINVKCKISRQCLEPCKKAGMRFGKCMAGKCHCTPK-OH; disulfide 8-28, 14-33, 18-35) | 0.693 | 10200 | > 3 | 0.766

Reference: patent US20090299044A1 (priority 2006, published 2009)
